Results as given in ChEMBL document CHEMBL3638792, “Indazoles” (2014).
pIC50: −log10 of the molar value.

Assays:
[1] = target: T1, Tyrosine-protein kinase JAK3 (Homo sapiens, UniProt P52333); test: High ATP Caliper Endpoint Assay: JAK3 enzyme (Invitrogen) stock solution is made up at 4.1 uM in sterile water. JAK3 enzyme stock is diluted to 2 nM in assay buffer (10 mM HEPES free acid pH 7.5, 10 mM HEPES free base pH 7.5, 10 mM MgCL2, 0.0005% Tween-20, 0.01% BSA) containing 2 mM DTT (all supplied by Sigma). ATP is made up at 10 mM stock in sterile water and diluted to 800 uM in assay buffer. …
T1 sequence (P52333 whole entry): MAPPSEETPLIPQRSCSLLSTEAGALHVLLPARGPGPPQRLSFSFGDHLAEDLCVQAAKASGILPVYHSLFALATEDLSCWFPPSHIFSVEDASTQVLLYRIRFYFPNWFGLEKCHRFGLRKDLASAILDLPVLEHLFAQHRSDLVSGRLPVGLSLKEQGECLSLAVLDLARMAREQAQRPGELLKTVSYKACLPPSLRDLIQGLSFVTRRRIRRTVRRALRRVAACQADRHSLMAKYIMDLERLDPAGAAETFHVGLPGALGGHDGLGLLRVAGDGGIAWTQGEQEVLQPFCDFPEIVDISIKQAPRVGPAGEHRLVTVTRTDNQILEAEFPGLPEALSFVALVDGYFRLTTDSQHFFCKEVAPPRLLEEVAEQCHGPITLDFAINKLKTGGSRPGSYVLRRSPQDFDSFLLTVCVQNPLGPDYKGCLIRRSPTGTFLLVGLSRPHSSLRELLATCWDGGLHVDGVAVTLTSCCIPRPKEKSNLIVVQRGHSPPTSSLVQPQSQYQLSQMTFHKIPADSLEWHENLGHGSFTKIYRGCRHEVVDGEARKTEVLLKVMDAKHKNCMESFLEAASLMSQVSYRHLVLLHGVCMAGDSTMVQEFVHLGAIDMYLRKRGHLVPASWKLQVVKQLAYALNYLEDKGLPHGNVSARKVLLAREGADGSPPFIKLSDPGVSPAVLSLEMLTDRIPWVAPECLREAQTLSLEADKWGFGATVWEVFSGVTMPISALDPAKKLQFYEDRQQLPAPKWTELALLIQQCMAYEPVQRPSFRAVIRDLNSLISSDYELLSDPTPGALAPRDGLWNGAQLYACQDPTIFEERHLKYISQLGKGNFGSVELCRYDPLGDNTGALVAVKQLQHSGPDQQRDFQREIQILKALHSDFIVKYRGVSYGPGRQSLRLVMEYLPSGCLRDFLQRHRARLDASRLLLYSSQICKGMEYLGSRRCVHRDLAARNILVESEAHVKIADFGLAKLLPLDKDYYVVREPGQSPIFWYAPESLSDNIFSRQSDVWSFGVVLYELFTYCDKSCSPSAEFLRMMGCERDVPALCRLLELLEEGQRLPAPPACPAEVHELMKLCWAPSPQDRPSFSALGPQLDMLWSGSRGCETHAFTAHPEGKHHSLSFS

[2] = target: Tyrosine-protein kinase JAK1 (Homo sapiens, UniProt P23458); test: High ATP Caliper Endpoint Assay: JAK1 enzyme (Invitrogen) stock solution is made up at 5.2 uM in sterile water. JAK1 enzyme stock is diluted to 20 nM in assay buffer (10 mM HEPES free acid pH 7.5, 10 mM HEPES free base pH 7.5, 10 mM MgCL2, 0.0005% Tween-20, 0.01% BSA) containing 2 mM DTT (all supplied by Sigma) with the addition of one protease tablet per 25 mls buffer (Roche). ATP is made up at 10 mM stock in sterile water and diluted to 5 mM in assay buffer. Peptide H236 (Caliper Life Sciences) is made up at 1.5 mM in 100% DMSO and diluted to 3 uM in assay buffer. Stop buffer comprises 140 mM HEPES, 22.5 mM EDTA (Sigma) and 0.15% coating reagent (Caliper Life Sciences).Assays are performed in Greiner polypropylene 384 well plates. Following compound preparation within the plate 10 ul of enzyme in assay buffer containing DTT is added using a Multidrop Micro. Final assay concentration of enzyme is 10 nM. Compound and enzyme are pre-incubated for 30 minutes at room temperature.
Chain of Tyrosine-protein kinase JAK1 (P23458 whole entry): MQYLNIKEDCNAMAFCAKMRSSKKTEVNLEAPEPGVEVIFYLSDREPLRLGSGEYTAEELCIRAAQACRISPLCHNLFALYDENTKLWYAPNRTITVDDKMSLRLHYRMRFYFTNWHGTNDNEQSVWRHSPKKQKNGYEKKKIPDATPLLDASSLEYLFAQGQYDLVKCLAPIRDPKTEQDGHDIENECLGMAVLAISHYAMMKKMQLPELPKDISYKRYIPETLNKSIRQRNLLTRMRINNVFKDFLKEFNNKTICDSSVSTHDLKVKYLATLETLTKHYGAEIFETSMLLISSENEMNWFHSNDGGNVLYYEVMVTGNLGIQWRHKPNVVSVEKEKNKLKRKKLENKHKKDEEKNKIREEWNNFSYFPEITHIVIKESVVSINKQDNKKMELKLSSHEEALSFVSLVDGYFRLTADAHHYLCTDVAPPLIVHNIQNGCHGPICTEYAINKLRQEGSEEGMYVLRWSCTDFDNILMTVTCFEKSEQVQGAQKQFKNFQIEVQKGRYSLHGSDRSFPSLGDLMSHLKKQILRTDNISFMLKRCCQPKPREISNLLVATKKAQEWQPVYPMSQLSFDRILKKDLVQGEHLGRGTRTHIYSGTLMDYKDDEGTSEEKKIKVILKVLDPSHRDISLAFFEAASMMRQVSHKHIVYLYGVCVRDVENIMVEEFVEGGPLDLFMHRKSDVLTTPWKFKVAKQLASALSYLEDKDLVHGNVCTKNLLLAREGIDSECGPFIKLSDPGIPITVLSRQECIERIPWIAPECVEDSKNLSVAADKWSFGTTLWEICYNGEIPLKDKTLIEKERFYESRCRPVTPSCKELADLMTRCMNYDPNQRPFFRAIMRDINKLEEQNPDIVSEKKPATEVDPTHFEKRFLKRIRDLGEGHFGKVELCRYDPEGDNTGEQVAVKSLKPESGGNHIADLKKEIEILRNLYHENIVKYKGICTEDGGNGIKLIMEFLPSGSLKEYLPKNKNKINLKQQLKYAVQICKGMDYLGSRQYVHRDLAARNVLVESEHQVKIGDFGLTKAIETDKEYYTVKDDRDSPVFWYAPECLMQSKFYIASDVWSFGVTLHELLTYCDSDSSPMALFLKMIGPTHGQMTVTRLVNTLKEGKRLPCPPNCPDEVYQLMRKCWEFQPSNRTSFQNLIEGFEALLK

Row | SMILES | pIC50 [1] | pIC50 [2]
1 | CCc1cc(O)c(F)cc1-c1ccc2c(-c3nc4c([nH]3)CCN(Cc3ccc5ncccc5c3)C4)n[nH]c2c1 | 8.85 | 8.38
2 | CCc1cc(O)c(F)cc1-c1ccc2c(-c3nc4c([nH]3)CCN(C(=O)c3ccc(C#N)nc3)CC4)n[nH]c2c1 | 8.85 | 8.47
